Data reported in ChEMBL document CHEMBL1124261 (J Med Chem, 1988).

Key:
[1] = Inhibitory constant against purified Folyl-polyglutamate synthase from mouse liver; format: functional
[2] = system: L1210; experiment: Range for the survival of mice infected with L1210 leukemia after an intraperitoneal dose of 12.5 mg/kg for 9 days; Range is 10-15; format: functional, Mus musculus
[3] = system: L1210; experiment: Range for the survival of mice infected with L1210 leukemia after an intraperitoneal dose of 25 mg/kg for 9 days; format: functional, Mus musculus
[4] = system: L1210; experiment: Range for the survival of mice infected with L1210 leukemia after an intraperitoneal dose of 6.25 mg/kg for 9 days; Range is 10-13; format: functional, Mus musculus
[5] = system: L1210 ( R81); experiment: Tested for cell-growth inhibition against mouse leukemic L1210/R81 cells; format: functional, cell-based
[6] = system: L1210; experiment: Increase in life span of mice infected with L1210 leukemia after an intraperitoneal dose of 12.5 mg/kg for 9 days; format: functional; conditions: Mus musculus, L1210, ip, 216 h
[7] = system: L1210; experiment: Increase in life span of mice infected with L1210 leukemia after an intraperitoneal dose of 25 mg/kg for 9 days; format: functional; conditions: Mus musculus, L1210, ip, 216 h
[8] = system: L1210; experiment: Increase in life span of mice infected with L1210 leukemia after an intraperitoneal dose of 50 mg/kg for 9 days; format: functional; conditions: Mus musculus, L1210, ip, 216 h
[9] = system: L1210; experiment: Increase in life span of mice infected with L1210 leukemia after an intraperitoneal dose of 6.25 mg/kg for 9 days; format: functional; conditions: Mus musculus, L1210, ip, 216 h
[10] = system: L1210; experiment: Mean change in weight of mice infected with L1210 leukemia after 7 days after an intraperitoneal dose of 12.5 mg/kg; format: functional, Mus musculus
[11] = system: L1210; experiment: Mean change in weight of mice infected with L1210 leukemia after 7 days after an intraperitoneal dose of 25 mg/kg; format: functional, Mus musculus
[12] = system: L1210; experiment: Mean change in weight of mice infected with L1210 leukemia after 7 days after an intraperitoneal dose of 50 mg/kg; format: functional, Mus musculus
[13] = system: L1210; experiment: Mean change in weight of mice infected with L1210 leukemia after 7 days after an intraperitoneal dose of 6.25 mg/kg; format: functional, Mus musculus
[14] = system: L1210; experiment: Tested for cell-growth inhibition against mouse leukemic L1210 cells; format: functional, cell-based
[15] = system: L1210; experiment: Mean survival of mice infected with L1210 leukemia after an intraperitoneal dose of 50 mg/kg for 9 days; format: functional, Mus musculus
[16] = system: L1210; experiment: Mean survival of mice infected with L1210 leukemia after an intraperitoneal dose of 6.25 mg/kg for 9 days; format: functional, Mus musculus
[17] = system: L1210; experiment: Mean survival of mice infected with L1210 leukemia after an intraperitoneal dose of 12.5 mg/kg for 9 days; format: functional, Mus musculus
[18] = system: L1210; experiment: Mean survival of mice infected with L1210 leukemia after an intraperitoneal dose of 25 mg/kg for 9 days; format: functional, Mus musculus
[19] = organism: Mus musculus; experiment: (§1) Tested for inhibition against purified Folyl-polyglutamate synthase from mouse liver; format: functional; conditions: dose or concentration not given here
[20] = target: T1, Dihydrofolate reductase (Mus musculus, UniProt P00375); experiment: biochemical
T1 sequence (P00375 whole entry): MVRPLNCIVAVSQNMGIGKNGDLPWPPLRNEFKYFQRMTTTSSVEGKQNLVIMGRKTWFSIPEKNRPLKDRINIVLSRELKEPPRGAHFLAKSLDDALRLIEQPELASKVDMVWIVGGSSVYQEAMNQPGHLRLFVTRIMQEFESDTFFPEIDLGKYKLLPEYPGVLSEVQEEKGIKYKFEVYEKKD
Description: Tested for inhibition against purified Dihydrofolate reductase from L1210 murine leukemia cells

[21] = system: L1210; experiment: Range for the survival of mice infected with L1210 leukemia after an intraperitoneal dose of 50 mg/kg for 9 days; Range is 8-16
[22] = organism: Mus musculus; experiment: as §1; conditions: concentration not given here
[23] = system: L1210; experiment: Range for the survival of mice infected with L1210 leukemia after an intraperitoneal dose of 12.5 mg/kg for 9 days; format: functional, Mus musculus
[24] = system: L1210; experiment: Range for the survival of mice infected with L1210 leukemia after an intraperitoneal dose of 50 mg/kg for 9 days; format: functional, Mus musculus
[25] = system: L1210; experiment: Range for the survival of mice infected with L1210 leukemia after an intraperitoneal dose of 6.25 mg/kg for 9 days; format: functional, Mus musculus
[26] = system: L1210; experiment: Increase in life span of mice infected with L1210 leukemia after an intraperitoneal dose of 4 mg/kg for 9 days; format: functional; conditions: Mus musculus, L1210, ip, 216 h
[27] = system: L1210; experiment: Mean change in weight of mice infected with L1210 leukemia after 7 days after an intraperitoneal dose of 4 mg/kg; format: functional, Mus musculus
[28] = system: L1210; experiment: Mean survival of mice infected with L1210 leukemia after an intraperitoneal dose of 4 mg/kg for 9 days; format: functional, Mus musculus
[29] = system: L1210; experiment: Range for the survival of mice infected with L1210 leukemia after an intraperitoneal dose of 4 mg/kg for 9 days; format: functional, Mus musculus

Row | SMILES | Ki [1] [nM] | Range [3] [days] | IC50 [5] [nM] | ILS at 12.5 mg/kg [6] [%] | ILS at 25 mg/kg [7] [%] | ILS at 50 mg/kg [8] [%] | ILS at 6.25 mg/kg [9] [%] | Weight change [10] [%] | Weight change [11] [%] | Weight change [12] [%] | Weight change [13] [%] | IC50 [14] [nM] | Survival [15] [days] | Survival [16] [days] | Survival [17] [days] | Survival [18] [days] | IC50 [20] [nM] | other results
1 | Nc1nc(N)c2nc(CNc3ccc(C(=O)NC(CCCCCCC(=O)O)C(=O)O)cc3)cnc2n1 (stereo unspecified) | 170000 | 16 | > 218000 | 61 | 34 | 20 | 36 | 9 | 5 | 7 | 9 | 20 | 10.6 | 12 | 14.2 | 11.8 | 54 | Range [2]: 10 days; Range [4]: 10 days; inhibition [19]: 50%; Range [21]: 8 days
2 | Nc1nc(N)c2nc(CNc3ccc(C(=O)NC(CCCCCCCCCCC(=O)O)C(=O)O)cc3)cnc2n1 (stereo unspecified) | 62000 | 16 | 215000 | 57 | 11 | 18 | 45 | 10 | -3 | 4 | 10 | 1.1 | 10.4 | 12.8 | 13.8 | 9.6 | 67 | inhibition [22]: 74%; Range [23]: 16 days; Range [24]: 15 days; Range [25]: 13 days
3 | CN(Cc1cnc2nc(N)nc(N)c2n1)c1ccc(C(=O)N[C@@H](CCC(=O)O)C(=O)O)cc1 [METHOTREXATE] | – | – | – | – | – | – | – | – | – | – | – | – | – | – | – | – | – | ILS at 4 mg/kg [26]: 95%; Weight change [27]: 8%; Survival [28]: 17.2 days; Range [29]: 23 days
